Experimental data: the supplement of paper PMC13380429

Assays:
Details in all cases: 72 h
[1] = tested on: HepG2; experiment: cell viability relative to DMSO; higher = less toxic
[2] = tested on: Vero E6; experiment: as above
[3] = tested on: Calu-3; experiment: as above
[4] = tested on: Caco-2; experiment: as above
[5] = tested on: U2OS; experiment: as above
[6] = tested on: HepG2; experiment: drug sensitivity score (DSS) for viability; higher = more toxic; extreme values may be limits of the assay
[7] = tested on: Vero E6; experiment: as above
[8] = tested on: Calu-3; experiment: as above
[9] = tested on: Caco-2; experiment: as above
[10] = tested on: U2OS; experiment: as above
[11] = tested on: HepG2; experiment: relative viability EC50 (midpoint between 100% and the lowest measured viability); higher = less toxic
[12] = tested on: Vero E6; experiment: as above
[13] = tested on: Calu-3; experiment: as above
[14] = tested on: Caco-2; experiment: as above
[15] = tested on: U2OS; experiment: as above

COC(=O)N[C@H](C(=O)N1CC2(CC2)C[C@H]1c1nc(-c2ccc3c(c2)C(F)(F)c2cc(-c4ccc5[nH]c([C@@H]6[C@H]7CC[C@H](C7)N6C(=O)[C@@H](NC(=O)OC)C(C)C)nc5c4)ccc2-3)c[nH]1)C(C)C [ledipasvir]
cell viability ([1]; 1 nM): 97%
cell viability ([1]; 10 nM): 109%
cell viability ([1]; 100 nM): 96.6%
cell viability ([1]; 1000 nM): 96.7%
cell viability ([1]; 10000 nM): 101%
cell viability ([2]; 1 nM): 94.3%
cell viability ([2]; 10 nM): 99.7%
cell viability ([2]; 100 nM): 91.9%
cell viability ([2]; 1000 nM): 99.7%
cell viability ([2]; 10000 nM): 108%
cell viability ([3]; 1 nM): 95.9%
cell viability ([3]; 10 nM): 106%
cell viability ([3]; 100 nM): 108%
cell viability ([3]; 1000 nM): 110%
cell viability ([3]; 10000 nM): 97.7%
cell viability ([4]; 1 nM): 93.8%
cell viability ([4]; 10 nM): 93.5%
cell viability ([4]; 100 nM): 98.1%
cell viability ([4]; 1000 nM): 94.5%
cell viability ([4]; 10000 nM): 87.5%
cell viability ([5]; 1 nM): 100%
cell viability ([5]; 10 nM): 99%
cell viability ([5]; 100 nM): 101%
cell viability ([5]; 1000 nM): 94.2%
cell viability ([5]; 10000 nM): 86.6%
drug sensitivity score [6]: 0
drug sensitivity score [7]: 0
drug sensitivity score [8]: 0
drug sensitivity score [9]: 0
drug sensitivity score [10]: 0.5
relative viability EC50 [11]: > 10 µM
relative viability EC50 [12]: > 10 µM
relative viability EC50 [13]: > 10 µM
relative viability EC50 [14]: > 10 µM
relative viability EC50 [15]: > 10 µM

CC(C)[C@@H]1CC[C@@H](C)C[C@H]1O [levomenthol]
cell viability ([1]; 1 nM): 102%
cell viability ([1]; 10 nM): 92.8%
cell viability ([1]; 100 nM): 101%
cell viability ([1]; 1000 nM): 104%
cell viability ([1]; 10000 nM): 103%
cell viability ([2]; 1 nM): 95.3%
cell viability ([2]; 10 nM): 108%
cell viability ([2]; 100 nM): 101%
cell viability ([2]; 1000 nM): 91.2%
cell viability ([2]; 10000 nM): 94.9%
cell viability ([3]; 1 nM): 98%
cell viability ([3]; 10 nM): 92.9%
cell viability ([3]; 100 nM): 88.9%
cell viability ([3]; 1000 nM): 96.8%
cell viability ([3]; 10000 nM): 90.5%
cell viability ([4]; 1 nM): 93.3%
cell viability ([4]; 10 nM): 84.4%
cell viability ([4]; 100 nM): 84.7%
cell viability ([4]; 1000 nM): 94.4%
cell viability ([4]; 10000 nM): 104%
cell viability ([5]; 1 nM): 105%
cell viability ([5]; 10 nM): 101%
cell viability ([5]; 100 nM): 101%
cell viability ([5]; 1000 nM): 101%
cell viability ([5]; 10000 nM): 95.5%
drug sensitivity score [6]: 0
drug sensitivity score [7]: 0
drug sensitivity score [8]: 0
drug sensitivity score [9]: 0
drug sensitivity score [10]: 0
relative viability EC50 [11]: > 10 µM
relative viability EC50 [12]: > 10 µM
relative viability EC50 [13]: > 10 µM
relative viability EC50 [14]: > 10 µM
relative viability EC50 [15]: > 10 µM

CC1(C)O[C@H]2CC(=O)OC[C@]23[C@H]2CC[C@@]4(C)[C@H](c5ccoc5)OC(=O)[C@H]5O[C@]54[C@]2(C)C(=O)C[C@@H]13 [limonin]
cell viability ([1]; 1 nM): 102%
cell viability ([1]; 10 nM): 105%
cell viability ([1]; 100 nM): 91.5%
cell viability ([1]; 1000 nM): 111%
cell viability ([1]; 10000 nM): 97.2%
cell viability ([2]; 1 nM): 97.1%
cell viability ([2]; 10 nM): 97.1%
cell viability ([2]; 100 nM): 93.7%
cell viability ([2]; 1000 nM): 98.6%
cell viability ([2]; 10000 nM): 104%
cell viability ([3]; 1 nM): 104%
cell viability ([3]; 10 nM): 89.5%
cell viability ([3]; 100 nM): 109%
cell viability ([3]; 1000 nM): 99.6%
cell viability ([3]; 10000 nM): 102%
cell viability ([4]; 1 nM): 97.5%
cell viability ([4]; 10 nM): 95.8%
cell viability ([4]; 100 nM): 106%
cell viability ([4]; 1000 nM): 98.5%
cell viability ([4]; 10000 nM): 105%
cell viability ([5]; 1 nM): 95.6%
cell viability ([5]; 10 nM): 98.6%
cell viability ([5]; 100 nM): 107%
cell viability ([5]; 1000 nM): 99%
cell viability ([5]; 10000 nM): 100%
drug sensitivity score [6]: 0
drug sensitivity score [7]: 0
drug sensitivity score [8]: 0
drug sensitivity score [9]: 0
drug sensitivity score [10]: 0
relative viability EC50 [11]: > 10 µM
relative viability EC50 [12]: > 10 µM
relative viability EC50 [13]: > 10 µM
relative viability EC50 [14]: > 10 µM
relative viability EC50 [15]: > 10 µM

Nc1ccc(O)c(C(=O)O)c1 [mesalazine]
cell viability ([1]; 1 nM): 112%
cell viability ([1]; 10 nM): 100%
cell viability ([1]; 100 nM): 103%
cell viability ([1]; 1000 nM): 104%
cell viability ([1]; 10000 nM): 97.3%
cell viability ([2]; 1 nM): 105%
cell viability ([2]; 10 nM): 104%
cell viability ([2]; 100 nM): 103%
cell viability ([2]; 1000 nM): 102%
cell viability ([2]; 10000 nM): 92.2%
cell viability ([3]; 1 nM): 109%
cell viability ([3]; 10 nM): 100%
cell viability ([3]; 100 nM): 107%
cell viability ([3]; 1000 nM): 96.5%
cell viability ([3]; 10000 nM): 102%
cell viability ([4]; 1 nM): 112%
cell viability ([4]; 10 nM): 98.6%
cell viability ([4]; 100 nM): 109%
cell viability ([4]; 1000 nM): 97.7%
cell viability ([4]; 10000 nM): 100%
cell viability ([5]; 1 nM): 103%
cell viability ([5]; 10 nM): 101%
cell viability ([5]; 100 nM): 103%
cell viability ([5]; 1000 nM): 96.8%
cell viability ([5]; 10000 nM): 104%
drug sensitivity score [6]: 0
drug sensitivity score [7]: 0
drug sensitivity score [8]: 0
drug sensitivity score [9]: 0
drug sensitivity score [10]: 0
relative viability EC50 [11]: > 10 µM
relative viability EC50 [12]: > 10 µM
relative viability EC50 [13]: > 10 µM
relative viability EC50 [14]: > 10 µM
relative viability EC50 [15]: > 10 µM

CCC1(CC)C(=O)NC(=O)N(C)C1=O [metharbital]
cell viability ([1]; 1 nM): 91.8%
cell viability ([1]; 10 nM): 104%
cell viability ([1]; 100 nM): 95.9%
cell viability ([1]; 1000 nM): 102%
cell viability ([1]; 10000 nM): 103%
cell viability ([2]; 1 nM): 93%
cell viability ([2]; 10 nM): 96.8%
cell viability ([2]; 100 nM): 94.1%
cell viability ([2]; 1000 nM): 92.3%
cell viability ([2]; 10000 nM): 103%
cell viability ([3]; 1 nM): 110%
cell viability ([3]; 10 nM): 92.6%
cell viability ([3]; 100 nM): 110%
cell viability ([3]; 1000 nM): 98.4%
cell viability ([3]; 10000 nM): 95%
cell viability ([4]; 1 nM): 94.3%
cell viability ([4]; 10 nM): 97.7%
cell viability ([4]; 100 nM): 104%
cell viability ([4]; 1000 nM): 102%
cell viability ([4]; 10000 nM): 93.1%
cell viability ([5]; 1 nM): 100%
cell viability ([5]; 10 nM): 93.4%
cell viability ([5]; 100 nM): 99.1%
cell viability ([5]; 1000 nM): 92.9%
cell viability ([5]; 10000 nM): 97.1%
drug sensitivity score [6]: 0
drug sensitivity score [7]: 0
drug sensitivity score [8]: 0
drug sensitivity score [9]: 0
drug sensitivity score [10]: 0
relative viability EC50 [11]: > 10 µM
relative viability EC50 [12]: > 10 µM
relative viability EC50 [13]: > 10 µM
relative viability EC50 [14]: > 10 µM
relative viability EC50 [15]: > 10 µM
